# Experimental data reported in PubChem BioAssay AID330 (DTP/NCI, 2004).
# “And” between values parts separate entries of the source, which are not always exact repeats. Equal entries are not always repeated. Inconclusive results and toxic doses are left out.
# Tested on: P388 leukemia ip, CD2F1 mice, survival T/C
# Test: NCI In Vivo Anticancer Drug Screen. Data for tumor model P388 Leukemia (intraperitoneal) in CD2F1 (CDF1) mice
# Settings: endpoint: median survival time, higher = longer survival
# In short: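 Mice carrying the transplanted tumor received test compound or vehicle. Survival was recorded in each group, and the value is the treated-group measurement divided by that of the vehicle-treated control group.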
# [1] = dose: 50.0 mg/kg/injection, schedule: Q01DX005 (ip), vehicle: saline with Tween-80
# [2] = dose: 100.0 mg/kg/injection, schedule: Q04DX002 (ip), vehicle: saline with Tween-80
# [3] = dose: 200.0 mg/kg/injection, schedule: Q04DX002 (ip), vehicle: saline with Tween-80
# [4] = dose: 100.0 mg/kg/injection, schedule: Q01DX005 (ip), vehicle: saline with Tween-80
# [5] = dose: 200.0 mg/kg/injection, schedule: Q01DX005 (ip), vehicle: saline with Tween-80
# [6] = dose: 50.0 mg/kg/injection, schedule: Q01DX005 (ip), vehicle: Klucel (hydroxypropylcellulose) (HPC)
# [7] = dose: 100.0 mg/kg/injection, schedule: Q01DX005 (ip), vehicle: Klucel (hydroxypropylcellulose) (HPC)
# [8] = dose: 200.0 mg/kg/injection, schedule: Q01DX005 (ip), vehicle: Klucel (hydroxypropylcellulose) (HPC)
structure (smiles),measurement,setting,value
CC1C2CC3OC(=O)C1C3C2 (configuration not stated),T/C,"dose: 12.5 mg/kg/injection, schedule: Q01DX005 (ip), vehicle: saline with Tween-80",102 % of control
same,T/C,"dose: 25.0 mg/kg/injection, schedule: Q01DX005 (ip), vehicle: saline with Tween-80",102 % of control
same,T/C,[1],99 % of control and 106 % of control
COC1=CC(=N/Cl)/C=CC/1=N/Cl,T/C,"dose: 6.25 mg/kg/injection, schedule: Q01DX005 (ip), vehicle: saline",115 % of control
same,T/C,"dose: 12.5 mg/kg/injection, schedule: Q01DX005 (ip), vehicle: saline",110 % of control
same,T/C,"dose: 25.0 mg/kg/injection, schedule: Q01DX005 (ip), vehicle: saline",115 % of control
CCN(CC)OCC=C(C)CCC=C(C)C (mixture of isomers),T/C,[2],111 % of control
same,T/C,[3],109 % of control
same,T/C,"dose: 400.0 mg/kg/injection, schedule: Q04DX002 (ip), vehicle: saline with Tween-80",108 % of control
O=C1C(Cl)=C(N=Nc2c(Cl)c(O)c3ccccc3c2O)C(=O)c2ccccc21,T/C,"dose: 1.56 mg/kg/injection, schedule: Q01DX009 (ip), vehicle: saline",101 % of control and 111 % of control
same,T/C,"dose: 3.12 mg/kg/injection, schedule: Q01DX009 (ip), vehicle: saline",103 % of control and 108 % of control
same,T/C,"dose: 6.25 mg/kg/injection, schedule: Q01DX009 (ip), vehicle: saline",108 % of control and 109 % of control
same,T/C,"dose: 12.5 mg/kg/injection, schedule: Q01DX009 (ip), vehicle: saline",107 % of control and 117 % of control
same,T/C,"dose: 25.0 mg/kg/injection, schedule: Q01DX009 (ip), vehicle: saline",102 % of control and 109 % of control
same,T/C,"dose: 25.0 mg/kg/injection, schedule: Q01DX010 (ip), vehicle: saline",109 % of control
same,T/C,"dose: 50.0 mg/kg/injection, schedule: Q01DX009 (ip), vehicle: saline",90 % of control and 97 % of control
same,T/C,"dose: 50.0 mg/kg/injection, schedule: Q01DX010 (ip), vehicle: saline",100 % of control
same,T/C,"dose: 100.0 mg/kg/injection, schedule: Q01DX010 (ip), vehicle: saline",109 % of control
CCN(CC)CCNc1cccc2oc3ccc(O)cc3c(=O)c12,T/C,[1],108 % of control
same,T/C,[4],105 % of control
same,T/C,[5],108 % of control
CCCCS(=O)(=O)N/N=C/C(=O)O,T/C,"dose: 6.25 mg/kg/injection, schedule: Q01DX009 (ip), vehicle: water",119 % of control
same,T/C,"dose: 12.5 mg/kg/injection, schedule: Q01DX009 (ip), vehicle: water",124 % of control
same,T/C,"dose: 50.0 mg/kg/injection, schedule: Q01DX009 (ip), vehicle: water",162 % of control
same,T/C,"dose: 100.0 mg/kg/injection, schedule: Q01DX009 (ip), vehicle: water",173 % of control
CCOc1cc2c(cc1C(C)c1ccc(OC)c(OC)c1)OCO2 (configuration not stated),T/C,[6],100 % of control
same,T/C,[7],105 % of control
same,T/C,[8],107 % of control
CCCCCNCC(=O)N1CCCC1C(=O)OC(C)(C)C (configuration not stated),T/C,[1],97 % of control
same,T/C,[4],105 % of control
same,T/C,[5],103 % of control
N#Cc1c(=O)n(CCO)nc2c3ccccc3c3ccccc3c12,T/C,[2],97 % of control
same,T/C,[3],88 % of control
O=C1c2ccccc2C(=O)N1OCc1csc(-c2ccccc2)n1,T/C,[6],95 % of control
same,T/C,[7],101 % of control
COc1ccc2c(c1OC)/C(=C/c1ccccc1)OC2C1c2c(cc3c(c2OC)OCO3)CCN1C (configuration not stated),T/C,[6],104 % of control
same,T/C,[7],105 % of control
same,T/C,[8],96 % of control
Cc1ccc(C2=NN(c3ccccc3)C(c3ccccc3)C2NC2CCCCC2)cc1 (configuration not stated),T/C,"dose: 25.0 mg/kg/injection, schedule: Q01DX005 (ip), vehicle: Klucel (hydroxypropylcellulose) (HPC)",90 % of control
same,T/C,[6],90 % of control
same,T/C,[7],89 % of control
C1COCCCOCCCOCCCC2(CCCOCCCOC1)CO2,T/C,[1],110 % of control
same,T/C,[4],86 % of control
same,T/C,[5],109 % of control
O=C(CCOCCCOCCC(=O)OCCCBr)OCCCBr,T/C,[6],102 % of control
same,T/C,[7],98 % of control
same,T/C,[8],98 % of control
